18 compounds from patent US20220169654A1, “New Organic Compounds” (Servier Pharmaceuticals LLC, priority 2020, published 2022) can be followed below.

The structures appear in SMILES notation.

Assay [1] deals with T1, MAT2A homodimer (Homo sapiens, UniProt P31153).
T1 construct: inferred from Ni sepharose purification with imidazole elution; made in house; host or cells: Sf9 insect cells, baculovirus (Bac to Bac, pFASTBAC1)
As to the kind of experiment: MAT2A inhibition (biochemical, liberated phosphate, PiColorLock Gold). The conditions noted are these: recombinant MAT2A homodimer; IC50 bin with Max Inh.; read-out: Enzyme Inhibition Bin. In a few lines:
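Baculovirus/Sf9-expressed, Ni-purified MAT2A (4 μg/mL) preincubated with compound 60 min at 25 °C in Tris pH 8.0/KCl/MgCl2 buffer. Reaction started with 500 μM ATP and 400 μM L-methionine (substrate-mix concentrations), run 60 min at 25 °C. Phosphate measured colorimetrically against a phosphate standard curve to give IC50.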

Assay [2] deals with SAM in HCT116 human colon carcinoma cell line with MTAP gene deleted (MTAP −/−). As to the kind of experiment: Cellular assay of target engagement (SAM), LC-MS/MS, 72 hrs. It is filed as cell-based. The conditions noted are these: HCT-116, IC50 bin with Max Inh., read-out: Cell 72 h SAM Inhibition (MTAP −/−). Summed up:
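MTAP-deleted HCT116 cells plated 24 h, then given 10-point 3-fold dilutions for 72 hrs at 37° C. Intracellular SAM extracted in cold 80% methanol with 1M acetic acid and d3-SAM standard, quantified by LC-MS/MS (MRM m/z 399.2→250.1); IC50 derived.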

The test system of assay [3] is HCT116 MTAP−/−. The experiment in a line: Inhibition of cellular proliferation, 4 days, Cell Titer Glo, HCT116 MTAP−/−. It is filed as cell-based. The conditions noted are these: Homo sapiens, HCT-116, 96 h, IC50 bin with Max Inh., read-out: 4 Day Relative Growth Inhibition (MTAP −/−). In a few lines:
(§1)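 Isogenic HCT116 pair differing only in MTAP status, plated 24 h before treatment with 10-point 3-fold dilutions; 4 days at 37° C./5% CO2. Cell Titer Glo luminescence, blank-subtracted and normalised to 0.2% DMSO control, gives percentage proliferation vs log molar concentration for IC50.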
In general terms: In ATP-based viability assays light output follows the ATP content of the culture.

In assay [4] the test system is HCT116 MTAP+/+. The experiment in a line: Inhibition of cellular proliferation, 4 days, Cell Titer Glo, HCT116 MTAP+/+. Format: cell-based. Conditions: Homo sapiens, HCT-116, 96 h, IC50 bin with Max Inh., read-out: 4 Day Relative Growth Inhibition (MTAP +/+). Summed up:
as §1

T1 sequence (P31153 whole entry): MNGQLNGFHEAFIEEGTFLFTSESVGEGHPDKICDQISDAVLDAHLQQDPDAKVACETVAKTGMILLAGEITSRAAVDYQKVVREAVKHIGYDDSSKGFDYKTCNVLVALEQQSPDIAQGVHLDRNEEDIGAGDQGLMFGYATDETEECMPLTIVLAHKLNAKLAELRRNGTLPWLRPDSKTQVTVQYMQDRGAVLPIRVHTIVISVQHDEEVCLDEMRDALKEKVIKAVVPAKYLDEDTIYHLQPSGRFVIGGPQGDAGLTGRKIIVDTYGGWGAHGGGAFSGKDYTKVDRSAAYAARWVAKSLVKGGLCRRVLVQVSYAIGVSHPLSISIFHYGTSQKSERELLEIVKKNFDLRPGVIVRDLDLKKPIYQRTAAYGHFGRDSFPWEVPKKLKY

`Cn1cc2cc(-n3nc4ncn(CC5CC5)c4c(-c4ccc(C5CC5)nc4)c3=O)ccc2n1` [Example 190, 5-(cyclopropylmethyl)-4-(6-cyclopropylpyridin-3-yl)-2-(2-methyl-2H-indazol-5-yl)-2,5-dihydro-3H-imidazo[4,5-c]pyridazin-3-one]: the IC50 in assay [1] is below 100 nM; in assay [2], below 100 nM; in assay [3], below 100 nM; in assay [4], above 1000 nM.

As to `Cn1cc2cc(-n3nc4c(c(-c5ccc(C6CC6)nc5)c3=O)N(CC3CC3)CC4(C)C)ccc2n1` [Example 260, 5-(cyclopropylmethyl)-4-(6-cyclopropylpyridin-3-yl)-7,7-dimethyl-2-(2-methyl-2H-indazol-5-yl)-2,5,6,7-tetrahydro-3H-pyrrolo[3,2-c]pyridazin-3-one], the IC50 was 1000 to 10000 nM in assay [1], above 1000 nM in assay [2], above 1000 nM in assay [3] and above 1000 nM in assay [4].

Consider `[2H]C([2H])([2H])Oc1ccc(-c2c(=O)n(-c3ccc4nn(C)cc4c3)nc3c(C)nn(CC4CC4)c23)cc1` [Example 216, 1-(cyclopropylmethyl)-7-(4-(methoxy-d3)phenyl)-3-methyl-5-(2-methyl-2H-indazol-5-yl)-1,5-dihydro-6H-pyrazolo[4,3-c]pyridazin-6-one], for which the IC50 in assay [1] is below 100 nM; in assay [2] it was below 100 nM; in assay [3], below 100 nM; in assay [4], 100 to 1000 nM.

As for `Cc1nn(CC2CC2)c2c(-c3ccc(OC(F)F)cc3)c(=O)n(-c3ccc4nn(C)cc4c3)nc12` [Example 212, 1-(cyclopropylmethyl)-7-(4-(difluoromethoxy)phenyl)-3-methyl-5-(2-methyl-2H-indazol-5-yl)-1,5-dihydro-6H-pyrazolo[4,3-c]pyridazin-6-one], the IC50 in assay [1], in assay [2], in assay [3] and in assay [4] was below 100 nM throughout.

On to `COC1CC=C(n2nc3ccn(CC4CC4)c3c(-c3ccc(OC(F)F)cc3)c2=O)CC1` (stereo not drawn) [Example 230, 5-(cyclopropylmethyl)-4-(4-(difluoromethoxy)phenyl)-2-(4-methoxycyclohex-1-en-1-yl)-2,5-dihydro-3H-pyrrolo[3,2-c]pyridazin-3-one], for which the IC50 is below 100 nM in assay [1], 100 to 1000 nM in assay [2], 100 to 1000 nM in assay [3] and above 1000 nM in assay [4].

As for `[2H]C([2H])([2H])Oc1ccc(-c2c(=O)n(-c3ccc4nn(C)cc4c3)nc3c(C(N)=O)cn(CC4CC4)c23)cc1` [Example 173, 5-(cyclopropylmethyl)-4-(4-(methoxy-d3)phenyl)-2-(2-methyl-2H-indazol-5-yl)-3-oxo-3,5-dihydro-2H-pyrrolo[3,2-c]pyridazine-7-carboxamide], the IC50 in assay [1] was below 100 nM; in assay [2] it was below 100 nM; in assay [3], below 100 nM; in assay [4] it was above 1000 nM.

In the case of `CC(C)Cn1ccc2nn(-c3ccc4nn(C)cc4c3)c(=O)c(-c3ccc(OC(F)F)cc3)c21` [Example 115, 4-(4-(difluoromethoxy)phenyl)-5-isobutyl-2-(2-methyl-2H-indazol-5-yl)-2,5-dihydro-3H-pyrrolo[3,2-c]pyridazin-3-one], the IC50 in assay [1] was below 100 nM; in assay [2], below 100 nM; in assay [3] it was below 100 nM; in assay [4] it was above 1000 nM.

On to `Cn1cc2cc(-n3nc4c(C(N)=O)cn(CC5CC5)c4c(-c4ccc(OC(F)F)cc4)c3=O)ccc2n1` [Example 168, 5-(cyclopropylmethyl)-4-(4-(difluoromethoxy)phenyl)-2-(2-methyl-2H-indazol-5-yl)-3-oxo-3,5-dihydro-2H-pyrrolo[3,2-c]pyridazine-7-carboxamide], for which the IC50 was below 100 nM in assay [1], below 100 nM in assay [2], below 100 nM in assay [3] and above 1000 nM in assay [4].

In the case of `Cn1cc2cc(-n3nc4c(c(-c5ccc(OC(F)F)cc5)c3=O)n(CC3CC3)c(=O)n4C)ccc2n1` [Example 196, 5-(cyclopropylmethyl)-4-[4-(difluoromethoxy)phenyl]-7-methyl-2-(2-methyl-2H-indazol-5-yl)-2H,3H,5H,6H,7H-imidazolidino[4,5-c]pyridazine-3,6-dione], the IC50 was below 100 nM in assay [1], below 100 nM in assay [2], below 100 nM in assay [3] and 100 to 1000 nM in assay [4].

Consider `CN1CCOc2ccc(-n3nc4ccn(CC5CC5)c4c(-c4ccc(OC(F)F)cc4)c3=O)cc21` [Example 227, 5-(cyclopropylmethyl)-4-(4-(difluoromethoxy)phenyl)-2-(4-methyl-3,4-dihydro-2H-benzo[b][1,4]oxazin-6-yl)-2,5-dihydro-3H-pyrrolo[3,2-c]pyridazin-3-one], for which the IC50 was below 100 nM in assay [1], below 100 nM in assay [2], below 100 nM in assay [3] and 100 to 1000 nM in assay [4].

Take `Cc1ccc(-c2c(=O)n(-c3ccc4nn(C)cc4c3)nc3c(CO)cn(CC4CC4)c23)cn1` [Example 255, 5-(cyclopropylmethyl)-7-(hydroxymethyl)-2-(2-methyl-2H-indazol-5-yl)-4-(6-methylpyridin-3-yl)-2,5-dihydro-3H-pyrrolo[3,2-c]pyridazin-3-one]: the IC50 was below 100 nM in assay [1], below 100 nM in assay [2], below 100 nM in assay [3] and 100 to 1000 nM in assay [4].

For `Cn1nc2ccc(-n3nc4ccn(CC5CC5)c4c(-c4ccc(C5CC5)nc4)c3=O)cc2c1C(F)(F)F` [Example 241, 5-(cyclopropylmethyl)-4-(6-cyclopropylpyridin-3-yl)-2-(2-methyl-3-(trifluoromethyl)-2H-indazol-5-yl)-2,5-dihydro-3H-pyrrolo[3,2-c]pyridazin-3-one], the IC50 in assay [1] was below 100 nM; in assay [2] it was below 100 nM; in assay [3], below 100 nM; in assay [4], above 1000 nM.

As to `Cn1cc2cc(-n3nc4c(c(-c5ccc(C6CC6)nc5)c3=O)n(CC3CC3)c(=O)n4C)ccc2n1` [Example 198, 5-(cyclopropylmethyl)-4-(6-cyclopropylpyridin-3-yl)-7-methyl-2-(2-methyl-2H-indazol-5-yl)-2,7-dihydro-3H-imidazo[4,5-c]pyridazine-3,6(5H)-dione], the IC50 in assay [1] was below 100 nM; in assay [2] it was below 100 nM; in assay [3] it was below 100 nM; in assay [4], above 1000 nM.

`Cc1nc2ccc(-n3nc4c(C#N)cn(CC5CC5)c4c(-c4ccc(C5CC5)nc4)c3=O)cc2n1C` [Example 148, 5-(cyclopropylmethyl)-4-(6-cyclopropylpyridin-3-yl)-2-(1,2-dimethyl-1H-benzo[d]imidazol-6-yl)-3-oxo-3,5-dihydro-2H-pyrrolo[3,2-c]pyridazine-7-carbonitrile]: the IC50 in assay [1], in assay [2], in assay [3] and in assay [4] was below 100 nM throughout.

Regarding `Cn1cc2cc(-n3nc4cnn(CC5CC5)c4c(-c4ccc(Cl)cc4)c3=O)ccc2n1` [Example 221, 7-(4-chlorophenyl)-1-(cyclopropylmethyl)-5-(2-methyl-2H-indazol-5-yl)-1,5-dihydro-6H-pyrazolo[4,3-c]pyridazin-6-one], the IC50 in assay [1] was below 100 nM; in assay [2], below 100 nM; in assay [3], below 100 nM; in assay [4], 100 to 1000 nM.

Take `Cn1cc2cc(-n3nc4c(C#N)cn(CC5CC5)c4c(-c4ccc(C(F)F)nc4)c3=O)ccc2n1` [Example 143, 5-(cyclopropylmethyl)-4-(6-(difluoromethyl)pyridin-3-yl)-2-(2-methyl-2H-indazol-5-yl)-3-oxo-3,5-dihydro-2H-pyrrolo[3,2-c]pyridazine-7-carbonitrile]: the IC50 is below 100 nM in assay [1], below 100 nM in assay [2], below 100 nM in assay [3] and 100 to 1000 nM in assay [4].

As for `[2H]C([2H])([2H])Oc1ccc(-n2nc3c(C#N)cn(CC4CC4)c3c(-c3ccc(C(F)F)nc3)c2=O)cc1` [Example 137, 5-(cyclopropylmethyl)-4-(6-(difluoromethyl)pyridin-3-yl)-2-(4-(methoxy-d3)phenyl)-3-oxo-3,5-dihydro-2H-pyrrolo[3,2-c]pyridazine-7-carbonitrile], the IC50 in assay [1] was below 100 nM; in assay [2], 100 to 1000 nM; in assay [3], 100 to 1000 nM; in assay [4], above 1000 nM.

Take `O=c1c(-c2ccc(OC(F)F)cc2)c2c(ccn2CC2CC2)nn1-c1ccncc1` [Example 226, 5-(cyclopropylmethyl)-4-(4-(difluoromethoxy)phenyl)-2-(pyridin-4-yl)-2,5-dihydro-3H-pyrrolo[3,2-c]pyridazin-3-one]: the IC50 in assay [1] is below 100 nM; in assay [2], below 100 nM; in assay [3], below 100 nM; in assay [4], 100 to 1000 nM.
